Data set [1] is described as follows: log P by HPLC on reversed-phase column (EEC Directive 79/831 Annex V.A8). The data set is classed as physicochemical. As for the experimental part: In table 1, the log P values were determined in accordance with EEC Directive 79/831 Annex V.A8 by HPLC (High Performance Liquid Chromatography) on a reversed-phase column (C18), using the method described below: Temperature: 40° C.; […]

The test system of a further data set is Pyrenophora teres. Put plainly: In vivo preventive test on Pyrenophora teres (barley). The settings on record: 500 ppm of active ingredient, evaluated 7-9 days after inoculation. Summed up: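 Compound formulated in N,N-dimethylformamide with alkylaryl polyglycol ether emulsifier and diluted in water, then sprayed on young barley plants at the stated application rate. Plants inoculated one day later with aqueous Pyrenophora teres spore suspension, testing preventive protection.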

A further data set relates to Puccinia triticina. Put plainly: In vivo preventive test on Puccinia triticina (wheat). The conditions noted are these: Table K, 500 ppm of active ingredient, evaluated 8 days after inoculation.
The next data set deals with Alternaria solani. Put plainly: In vivo preventive test on Alternaria solani (tomato). The settings on record: 500 ppm of active ingredient, evaluated 7 days after inoculation. Summed up:
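Young tomato plants sprayed preventively with compound in DMF/alkylarylpolyglycolether emulsion diluted in water to the stated rate. Inoculation with aqueous Alternaria solani spore suspension one day after treatment.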

The test system of a further data set is Aspergillus parasiticus. The data set is described as follows: microbe, parasite or virus in culture. The data set is classed as cell-based.
In another data set the test system is Sphaerotheca fuliginea. Put plainly: In vivo preventive test on Sphaerotheca fuliginea (cucumber). The settings on record: 500 ppm of active ingredient, evaluated 7 days after inoculation. As for the experimental part: Solvent: 49 parts by weight of N,N-dimethylformamide Emulsifier: 1 part by weight of Alkylarylpolyglycolether To produce a suitable preparation of active compound, 1 part by weight of active compound is mixed with the stated amounts of solvent and emulsifier, and the concentrate is diluted with water to the desired concentration. To test for preventive activity, young plants are sprayed with the preparation of active compound at the stated rate of application. One day after this treatment, the plants are inoculated with an aqueous spore suspension of Sphaerotheca fuliginea. Then the plants are placed in a greenhouse at approximately 23° C. and a relative atmospheric humidity of approximately 70%.

Data set [2] relates to aflatoxines produced by Aspergillus parasiticus. The data set is described as follows: microbe, parasite or virus in culture. The data set is classed as cell-based.

The structures appear in SMILES notation.

One may read the logP as the decadic logarithm of the partition coefficient of the neutral form, usually between octanol and water. With `CN(CCCc1cc(Cl)ccc1Cl)C(=O)c1c(C(F)F)nn(C)c1Cl` [Example 167], the logP in data set [1] was 3.62. Also, the results for the Efficacy in the data set with Pyrenophora teres, with Puccinia triticina and with Alternaria solani were 80%, 70% and 100%, respectively.

As for `Cc1cccc(C)c1CCC(C)NC(=O)c1c(C(F)F)nn(C)c1Cl` (centres unmarked) [Example 153], in the data set with Aspergillus parasiticus, the “% Inhibition of fungal growth at 50 μM” value is reported as 99%. This compound registered a logP in data set [1] of 3.61. The Efficacy in the data set with Sphaerotheca fuliginea was found to be 100%; with Pyrenophora teres, 100%; in the data set with Puccinia triticina, 95%. Besides, the “% Inhibition of Aflatoxin at 50 μM” value in data set [2] amounted to 100%.

Regarding `CC(N(C(=O)c1c(C(F)F)nn(C)c1Cl)C1CC1)C(C)(C)Cc1ccc(Cl)cc1Cl` (centres unmarked) [Example 182], the “% Inhibition of fungal growth at 50 μM” value with Aspergillus parasiticus is recorded as 90%. Moreover, the logP in data set [1] is 5.39. Moreover, the Efficacy is recorded as 75% in the data set on Sphaerotheca fuliginea, 100% in the data set on Pyrenophora teres and 95% with Alternaria solani. The “% Inhibition of Aflatoxin at 50 μM” value in data set [2] is recorded as 100%.

Turning to `Cc1cccc(C)c1CCC(C)NC(=O)c1c(C(F)F)nn(C)c1F` (centres unmarked) [Example 154], the “% Inhibition of fungal growth at 50 μM” value in the data set with Aspergillus parasiticus is reported as 100%. This compound registered a logP in data set [1] of 3.41. Also, the Efficacy in the data set on Sphaerotheca fuliginea stood at 100%; in the data set on Pyrenophora teres, 100%; in the data set on Puccinia triticina, 70%; with Alternaria solani, 100%. Further, the “% Inhibition of Aflatoxin at 50 μM” value in data set [2] is 100%.

For `Cn1nc(C(F)F)c(C(=O)NC(C)(C)CCc2ccc(Cl)cc2Cl)c1F` [Example 196], the “% Inhibition of fungal growth at 50 μM” value in the data set with Aspergillus parasiticus stood at 91%. For the same compound, the logP in data set [1] was 4.39. For the same compound, the Efficacy with Sphaerotheca fuliginea is on record as 75%; with Pyrenophora teres, 100%; in the data set with Alternaria solani, 95%. Moreover, the “% Inhibition of Aflatoxin at 50 μM” value in data set [2] worked out at 100%.

`CN(CCCc1cc(Cl)ccc1Cl)C(=O)c1c(C(F)F)nn(C)c1F` [Example 166]: the “% Inhibition of fungal growth at 50 μM” value in the data set on Aspergillus parasiticus is reported as 88%. Further, in data set [1], the logP was determined as 3.48. In addition, the Efficacy was 100% with Pyrenophora teres, 78% with Puccinia triticina and 100% in the data set on Alternaria solani. Also, in data set [2], the “% Inhibition of Aflatoxin at 50 μM” value is 100%.

In the case of `CC1CCCC(C)(C)C1CCC(C)N(C(=O)c1c(C(F)F)nn(C)c1F)C1CC1` (centres unmarked) [Example 367], the “% Inhibition of fungal growth at 50 μM” value with Aspergillus parasiticus came to 100%. The logP in data set [1] was 5.81. The results for the Efficacy in the data set on Sphaerotheca fuliginea, in the data set on Pyrenophora teres and with Alternaria solani were 100%, 100% and 90%, respectively. In addition, the “% Inhibition of Aflatoxin at 50 μM” value in data set [2] is 100%.

As for `CC(CCc1cc(Cl)ccc1Cl)NC(=O)c1c(C(F)F)nn(C)c1F` (centres unmarked) [Example 172], the “% Inhibition of fungal growth at 50 μM” value in the data set with Aspergillus parasiticus is given as 100%. For the same compound, in data set [1], the logP was 3.68. The Efficacy came to 93% in the data set with Sphaerotheca fuliginea, 100% in the data set with Pyrenophora teres and 100% in the data set on Alternaria solani. Besides, in data set [2], the “% Inhibition of Aflatoxin at 50 μM” value is given as 100%.

On to `CC(CCc1ccccc1Cl)NC(=O)c1c(C(F)F)nn(C)c1F` (racemic) [Example 144], for which the “% Inhibition of fungal growth at 50 μM” value with Aspergillus parasiticus is 94%. The compound further gave a logP in data set [1] of 3.21. Further, the Efficacy turned out to be 90% in the data set with Sphaerotheca fuliginea, 100% with Pyrenophora teres and 100% in the data set on Alternaria solani. In addition, the “% Inhibition of Aflatoxin at 50 μM” value in data set [2] was determined as 100%.

Take `CC(C)CCC1CCCC1NC(=O)c1c(C(F)F)nn(C)c1Cl` (centres unmarked) [Example 309]: the “% Inhibition of fungal growth at 50 μM” value in the data set with Aspergillus parasiticus is given as 82%. For the same compound, in data set [1], the logP came to 4.20. The results for the Efficacy in the data set with Sphaerotheca fuliginea, in the data set on Pyrenophora teres and in the data set with Alternaria solani were 98%, 100% and 100%, respectively. Further, the “% Inhibition of Aflatoxin at 50 μM” value in data set [2] was 100%.

`CC(CCc1c(Cl)cccc1Cl)NC(=O)c1c(C(F)F)nn(C)c1F` (centres unmarked) [Example 163]: in the data set with Aspergillus parasiticus, the “% Inhibition of fungal growth at 50 μM” value is on record as 100%. The same compound gave a logP in data set [1] of 3.59. The Efficacy is on record as 100% in the data set with Sphaerotheca fuliginea, 100% with Pyrenophora teres, 80% in the data set with Puccinia triticina and 100% in the data set on Alternaria solani. Further, the “% Inhibition of Aflatoxin at 50 μM” value in data set [2] was 100%.

Consider `CCC(CCc1sccc1Br)NC(=O)c1c(C(F)F)nn(C)c1F` (centres unmarked) [Example 89], for which the “% Inhibition of fungal growth at 50 μM” value in the data set on Aspergillus parasiticus stood at 89%. For the same compound, the logP in data set [1] was determined as 3.46. The results for the Efficacy in the data set with Sphaerotheca fuliginea, with Pyrenophora teres and in the data set on Alternaria solani were 88%, 100% and 80%, respectively. The “% Inhibition of Aflatoxin at 50 μM” value in data set [2] stood at 100%.

For `CC(C)CC1CCCCC1NC(=O)c1c(C(F)F)nn(C)c1F` (centres unmarked) [Example 340], the “% Inhibition of fungal growth at 50 μM” value with Aspergillus parasiticus was determined as 95%. The compound also gave a logP in data set [1] of 3.94. For the same compound, the Efficacy with Sphaerotheca fuliginea was found to be 90%; with Pyrenophora teres it was 100%; in the data set on Alternaria solani, 100%. In addition, the “% Inhibition of Aflatoxin at 50 μM” value in data set [2] was 100%.

Consider `Cc1cccc(C)c1OCC(C)N(C(=O)c1c(C(F)F)nn(C)c1F)C1CC1` (centres unmarked) [Example 155], for which the “% Inhibition of fungal growth at 50 μM” value with Aspergillus parasiticus was found to be 100%. In data set [1], this compound yielded a logP of 3.94. For the same compound, the Efficacy with Pyrenophora teres stood at 100%; in the data set with Puccinia triticina it was 90%. Also, the “% Inhibition of Aflatoxin at 50 μM” value in data set [2] is on record as 100%.

As to `CC(CCc1ccc(C(F)(F)F)cc1)NC(=O)c1c(C(F)F)nn(C)c1F` (centres unmarked) [Example 71], the “% Inhibition of fungal growth at 50 μM” value with Aspergillus parasiticus was determined as 83%. The compound further showed a logP in data set [1] of 3.46. For the same compound, the figures for the Efficacy in the data set with Sphaerotheca fuliginea, in the data set with Pyrenophora teres and with Alternaria solani were 95%, 100% and 95%, respectively. For the same compound, in data set [2], the “% Inhibition of Aflatoxin at 50 μM” value is given as 100%.

In data set [1], `Cn1nc(C(F)F)c(C(=O)NC2CCCCC2Oc2ccccc2)c1Cl` (centres unmarked) [Example 246] returned a logP of 3.76. Besides, the Efficacy in the data set with Puccinia triticina is listed as 95%.

Regarding `Cc1cccc(C)c1CC(C)CNC(=O)c1c(C(F)F)nn(C)c1F` (racemic) [Example 150], in the data set with Aspergillus parasiticus, the “% Inhibition of fungal growth at 50 μM” value was found to be 82%. The log partition coefficient (logP) in data set [1] amounted to 3.44. Besides, the Efficacy with Sphaerotheca fuliginea worked out at 83%; in the data set on Pyrenophora teres, 100%; in the data set on Alternaria solani, 80%. Further, the “% Inhibition of Aflatoxin at 50 μM” value in data set [2] is 100%.

Consider `CC1CCCC(C)(C)C1CCC(C)N(C(=O)c1c(C(F)F)nn(C)c1Cl)C1CC1` (centres unmarked) [Example 368], for which the “% Inhibition of fungal growth at 50 μM” value in the data set on Aspergillus parasiticus came out at 93%. Moreover, the logP in data set [1] is given as 6.07. The Efficacy was found to be 93% in the data set on Sphaerotheca fuliginea, 95% in the data set with Pyrenophora teres and 80% in the data set on Alternaria solani. Further, in data set [2], the “% Inhibition of Aflatoxin at 50 μM” value was 100%.

For the compound `Cn1nc(C(F)F)c(C(=O)N(C2CC2)C2CCCCC2C(C)(C)C)c1F` (centres unmarked) [Example 350], the “% Inhibition of fungal growth at 50 μM” value with Aspergillus parasiticus was 100%. This compound returned a logP in data set [1] of 4.71. Moreover, the Efficacy was 100% in the data set on Sphaerotheca fuliginea, 100% in the data set with Pyrenophora teres and 90% in the data set on Alternaria solani. The “% Inhibition of Aflatoxin at 50 μM” value in data set [2] was 100%.

Consider `CC(CCc1ccc(C(F)(F)F)cc1)NC(=O)c1c(C(F)F)nn(C)c1Cl` (centres unmarked) [Example 70], for which, in the data set with Aspergillus parasiticus, the “% Inhibition of fungal growth at 50 μM” value turned out to be 78%. The same compound displayed a logP in data set [1] of 3.63. For the same compound, the results for the Efficacy in the data set on Sphaerotheca fuliginea, with Pyrenophora teres and in the data set on Alternaria solani were 75%, 100% and 95%, respectively. The “% Inhibition of Aflatoxin at 50 μM” value in data set [2] amounted to 97%.

For `CC(CCc1ccccc1C(F)(F)F)N(C(=O)c1c(C(F)F)nn(C)c1Cl)C1CC1` (centres unmarked) [Example 220], in data set [1], the logP is recorded as 4.26. The results for the Efficacy in the data set with Pyrenophora teres, in the data set on Puccinia triticina and in the data set with Alternaria solani were 100%, 90% and 95%, respectively.

The values are drawn from patent US8999956B2, “N-[(het)arylalkyl)] pyrazole(thio)carboxamides and their heterosubstituted analogues” (Bayer Intellectual Property GmbH, priority 2010, dated 2015).
